Experimental data taken from paper PMC8012331, “Drug-induced hepatic steatosis in absence of severe mitochondrial dysfunction in HepaRG cells: proof of multiple mechanism-based toxicity” (Cell Biology and Toxicology, 2020).
Where “and” joins values, the source holds several entries; their conditions need not be identical. Equal entries are not always repeated. Where two headings read alike, the source gives them in different places.

Key:
HepaRG cells [1] = assay: Neutral lipids with Nile red in HepaRG cells; details: 4 days, selected concentrations (ATP loss < 30%, not above 100 × Cmax), vs control
Experimental: (§1) Briefly, HepaRG cells were seeded in 96-well plates at a density of 2.6 × 10^4 cells/cm^2 and were first incubated in William’s E medium supplemented with 10% FBS (50% FBS from Eurobio and 50% FBS from GE Healthcare), 100 U/mL penicillin, 100 μg/mL streptomycin, 2 mM glutamine, 5 μg/mL insulin, and 50 μM hydrocortisone hemisuccinate. […] During this 1-month period, the culture medium was renewed three times a week. […] HepaRG cells were next cultured in the same FBS/DMSO conditions and incubated for 4 days with each drug at different concentrations. Culture medium was renewed every day and all investigations were performed after 96 h (i.e., 24 h after the fourth treatment). These investigations were mostly performed in 96-well plates except for western blot analysis, for which 6-well plates were used. Experiments were carried out on passages 9 to 16. All drugs (except DPEN), etomoxir, lomitapide, tunicamycin, thapsigargin, and TUDCA were dissolved in DMSO. DPEN was dissolved in water.
(§2) Cells were then incubated with PBS containing 0.1 μg/mL Nile red for 30 min and washed once. […] For each well, four pictures were taken at a magnification of × 20 and analyzed with Columbus software (PerkinElmer) for quantification. These pictures were always taken in four different areas around the center of each well, and these areas were the same from one well to another, as programmed by the Columbus software. This software was also designed to count only living cells after exclusion of dying cells harboring nuclei with abnormal shape or altered Hoechst intensity. […] Neutral lipids were then normalized per number of nuclei and expressed relative to control cells. Examples of images used for neutral lipid quantification are shown in Supplementary Fig. 2.

[2] = test system: de novo lipogenesis (DNL); assay: DNL from [2-14C]acetic acid in HepaRG cells; format: cell-based, human; details: 4 days, vs control
Experimental: (§3) Experiments were carried out on passages 9 to 16. […] DPEN was dissolved in water.
DNL was assessed by measuring newly synthesized radiolabeled lipids from [2-^14C]acetic acid, using a protocol adapted from Byrne et al. ([2014]). Briefly, culture medium was removed and cells were washed with warm PBS. Next, cells were incubated for 3 h with phenol red-free William’s E medium containing 1% fatty acid-free BSA, [2-^14C]acetic acid (1850 Bq per well, corresponding to 19.4 pM) and 50 μM cold acetic acid. Medium was then gently removed and cells were washed with warm PBS before adding a mix of hexane/isopropanol (3:2; v/v). Cell culture plates were sealed and incubated for 1 h at room temperature for lipid extraction. After transfer of the plate content in 200-μL microtubes, hexane and PBS were added to have a hexane/isopropanol/PBS ratio of 6:2:3 (v/v/v). Microtubes were then centrifuged at 1000×g for 5 min and radiolabeled lipids were counted in the upper phase with a Tri-Carb 4910TR liquid scintillation counter (PerkinElmer). Results were normalized to total protein content and expressed in comparison to control cells.

ATP citrate lyase (ACLY) = assay: RT-qPCR ACLY mRNA in HepaRG cells; format: cell-based, human; details: 4 days, vs control
Experimental: (§4) Total RNA was extracted with the Nucleospin RNA isolation system purchased from Macherey-Nagel (Düren, Germany), which included a DNase treatment step. Quantification of isolated RNAs was assessed using a Nanodrop 1000 (Thermo Fisher Scientific, Waltham, MA). RNAs were reverse-transcribed into cDNAs using the High-Capacity cDNA Reverse Transcription Kit purchased from Applied Biosystems (Woolston, UK). Gene expression was assessed by real-time quantitative PCR analysis (RT-qPCR) using SYBR Green PCR Master Mix (Applied Biosystems) and a 384-well QuantStudio™ 7 Flex Real-Time PCR System (Thermo Fisher Scientific). Sequences of the primers used to measure gene expression are presented in Supplementary Table 3. Expression of GAPDH was chosen as reference and the 2^−ΔΔCt calculation method was used to express the relative expression of each selected gene.

[3] = test system: stearoyl-CoA desaturase 1 (hSCD1); assay: RT-qPCR hSCD1 mRNA in HepaRG cells; format: cell-based, human; details: 4 days, vs control
Experimental: as §4

[4] = test system: mitochondrial fatty acid oxidation (mtFAO); assay: mtFAO with [U-14C]palmitic acid in HepaRG cells; format: cell-based, human; details: 4 days, vs control
Experimental: as §3
Results were normalized to total protein content determined using the Pierce BCA assay kit from Thermo Fischer Scientific (Waltham, MA). Results were expressed in comparison to control cells.

apoB secretion = assay: apoB level in culture medium (ELISA), HepaRG cells; format: cell-based, human; details: 4 days; for Effect on apoB secretion: culture medium, vs control
Experimental: as §3
Twenty-four hours after the last treatment, cell supernatants were removed and stored at − 80 °C until use for apolipoprotein measurement. ApoB level was measured using the Human Apolipoprotein B ELISA^pro kit from Mabtech (Nacka Strand, Sweden), according to the manufacturer’s instructions. Briefly, 50 μL of samples were diluted 2× in Apo ELISA buffer before a 2-h incubation in the precoated strip plates provided in the kit. The plates were washed and incubated 1 h with the biotinylated monoclonal anti-human apoB (LDL-11-biotin) antibody. The plates were then washed and incubated 1 h with a streptavidin–horseradish peroxidase conjugated antibody. After another washing, 3,3′,5,5′-tetramethylbenzidine (TMB) was used as substrate for 15 min before adding a stop solution. Absorbance at 450 nm was then measured using a POLARstar Omega microplate reader (BMG Labtech, Ortenberg). ApoB level was calculated utilizing a four-parameter standard curve, and normalized to the total cellular protein content and expressed in comparison to control cells.

HepaRG cells [5] = assay: Cellular ATP level (CellTiter-Glo) in HepaRG cells; format: cell-based, human; details: 4 days, vs controls
Experimental: Cellular ATP level was measured using the CellTiter-Glo® Luminescent Cell Viability assay purchased from Promega (Charbonnières, France), according to the manufacturer’s instructions. Briefly, control and treated HepaRG cells were first washed with warm PBS and kept for 30 min at room temperature in phenol red-free William’s E medium. Cells were next incubated with the CellTiter-Glo® reagent for 10 min at room temperature. Cells were then transferred in opaque-walled multiwell plates and the luminescent signal was quantified using a POLARstar Omega microplate reader (BMG Labtech, Ortenberg, Germany). Results were expressed in comparison to control cells.

[6] = Maximum plasma concentration (Cmax) in patients; format: in vivo, human
[7] = test system: fatty acid translocase (FAT, also known as CD36); assay: RT-qPCR FAT/CD36 mRNA in HepaRG cells; format: cell-based, human; details: 4 days
Experimental: as §4

[8] = cited from earlier work; for Cmax: read-out: Maximum plasma concentration (Cmax) in patients
[9] = treated patients, cited from earlier work
apoC3 secretion = assay: apoC3 level in culture medium (HTRF), HepaRG cells; format: cell-based, human; details: 4 days; for Effect on apoC3 secretion: culture medium, vs control
Experimental: as §1
Apolipoprotein C3 (apoC3) level was measured using the Human Apolipoprotein C3 kit from Cisbio Bioassays (Codolet, France), according to the manufacturer’s instructions. Briefly, 10 μL of supernatants was incubated with two different specific anti-human apoC3 antibodies, one donor and one acceptor. The detection principle of apoC3 is based on HTRF® (Homogeneous Time Resolved Fluorescence), a time-resolved FRET (Förster Resonance Energy Transfer) technology. After 2 h of incubation, light emission was measured with the Infinite F Nano+ microplate reader (Tecan, Männedorf, Switzerland). ApoC3 level was calculated utilizing standard curve, based on the ratio of A665 nm/A615 nm, and normalized to the total cellular protein content. Results were expressed in comparison to control cells.

[10] = test system: acetyl-CoA carboxylase alpha (ACACA); assay: RT-qPCR ACACA mRNA in HepaRG cells; format: cell-based, human; details: 4 days, vs control
Experimental: as §4

[11] = test system: fatty acid synthase (FASN); assay: RT-qPCR FASN mRNA in HepaRG cells; format: cell-based, human; details: 4 days, vs control
Experimental: as §4

ERN1 (IRE1α) = assay: RT-qPCR ERN1 mRNA in HepaRG cells; format: cell-based, human; details: 4 days, vs control
Experimental: as §4

[12] = test system: primary human hepatocytes (PHH); assay: Neutral lipids with Nile red in primary human hepatocytes; format: cell-based; details: 4 days
Experimental: Primary human hepatocytes (PHH) were purchased from Biopredic International (Saint-Grégoire, France). Cells were seeded by the supplier in coated 96-well plates at a density of 5 × 10^4 cells/well. Upon receipt, culture medium was removed and replaced by William’s E medium supplemented as previously described for HepaRG cell differentiation, except for DMSO set at 1%. After 2–3 days, cells were treated as for HepaRG cells. For HepaRG cells and PHH, cells were always maintained in incubators at 37 °C with 5% CO2 and saturating humidity.
as §2

apolipoprotein B (APOB) = assay: RT-qPCR APOB mRNA in HepaRG cells; format: cell-based, human; details: 4 days, vs control
Experimental: as §4

[13] = test system: apolipoprotein C3 (APOC3); assay: RT-qPCR APOC3 mRNA in HepaRG cells; format: cell-based, human; details: 4 days, vs control
Experimental: as §4

[14] = test system: microsomal triglyceride transfer protein (MTTP); assay: RT-qPCR MTTP mRNA in HepaRG cells; format: cell-based, human; details: 4 days, vs control
Experimental: as §4

[15] = test system: angiopoietin-like 3 (ANGPTL3); assay: RT-qPCR ANGPTL3 mRNA in HepaRG cells; format: cell-based, human; details: 4 days, vs control
Experimental: as §4

[16] = high dose chemotherapy, ref Holmboe L et al., Br J Clin Pharmacol. 2012;73(1):106-14
[17] = rheumatoid arthritis treatment, ref Hoekstra M et al., J Rheumatol. 2004;31(4):645-8
[18] = worked out from cited Cmax in patients

| Compound | Accumulation of neutral lipids (steatosis) (HepaRG cells [1]) | Effect on DNL [2] | ACLY mRNA level (ATP citrate lyase (ACLY)) | Effect on mtFAO [4] | Effect on apoB secretion (apoB secretion) | Loss of cellular ATP relative to the maximum concentration selected for the study (HepaRG cells [5]) | Effect on apoC3 secretion (apoC3 secretion) | Concentration corresponding to 100xCmax [6, 18] [µM] | ERN1 (IRE1α) mRNA level (ERN1 (IRE1α)) | Maximum plasma concentration (Cmax) in patients ([8]; patients, ref given per drug) [ng/mL] | Cmax ([8]; patients, ref given per drug) [µM] | other results |
| --- | --- | --- | --- | --- | --- | --- | --- | --- | --- | --- | --- | --- |
| CCCCc1oc2ccccc2c1C(=O)c1cc(I)c(OCCN(CC)CC)c(I)c1 [AMIO, amiodarone] | significant accumulation of neutral lipids | increased DNL | enhanced mRNA level | – | – | – | – | – | – | – | – | hSCD1 mRNA level [3]: enhanced mRNA level |
| CN(Cc1cnc2nc(N)nc(N)c2n1)c1ccc(C(=O)N[C@@H](CCC(=O)O)C(=O)O)cc1 [METHO, methotrexate] | significant accumulation of neutral lipids | curb this metabolic pathway | – | significantly enhance mtFAO | did not reduce | 150 µM (loss of cellular ATP below 30% of the controls for this concentration, as shown in Supp. fig 1) | – | – | – | – | – | Concentration corresponding to 100xCmax ([6]; from Cmax of high dose chemotherapy): 150000 µM; Concentration corresponding to 100xCmax ([6]; from Cmax of rheumatoid arthritis treatment): 130 µM; Increase of FAT/CD36 mRNA level ([7]; 50 μM): 60%; Increase of FAT/CD36 mRNA level ([7]; 150 μM): 55%; Maximum plasma concentration (Cmax) in patients [8, 16]: ≤ 680000 ng/mL; Cmax [8, 16]: ≤ 1500 µM; Maximum plasma concentration (Cmax) in patients [8, 17]: ≤ 594 ng/mL; Cmax [8, 17]: ≤ 1.3 µM; Therapeutic blood (or plasma) concentration in patients ([9]; ref Schulz M et al., Crit Care 2012 ;16(4):R136, listed as Methotrexate (METHO)): 0.04 mg/L and 0.09 µM |
| CC1=C(CC(=O)O)c2cc(F)ccc2/C1=C\c1ccc([S+](C)[O-])cc1 (stereo not shown) [SUL, sulindac] | significant accumulation of neutral lipids | increased DNL | augmented mRNA abundance | – | reduced the secretion | 1000 µM (loss of cellular ATP above 30% of the controls for higher concentrations, as shown in Supp. fig 1) | reduced the secretion | 3200 | enhanced IRE1α mRNA level | ≤ 11400 | ≤ 32 | ACACA mRNA level [10]: augmented mRNA abundance; FASN mRNA level [11]: augmented mRNA abundance; Therapeutic blood (or plasma) concentration in patients ([9]; ref Schulz M et al., Crit Care 2012 ;16(4):R136, listed as Sulindac (SUL)): 1 - 5 mg/L and 2.8 - 14 µM |
| Cc1c(C)c2c(c(C)c1O)CCC(C)(COc1ccc(CC3SC(=O)NC3=O)cc1)O2 (stereo not shown) [TRO, troglitazone] | significant accumulation of neutral lipids | curb this metabolic pathway | – | significantly enhance mtFAO | reduced the secretion | 47.5 µM (loss of cellular ATP above 30% of the controls for higher concentrations, as shown in Supp. fig 1) | reduced the secretion | 640 | enhanced IRE1α mRNA level | ≤ 2830 | ≤ 6.4 | Steatosis in PHH batches (six batches tested) [12]: induced steatosis in only one PHH batch; Secretion of apoB (apoB secretion; 45 and 47.5 μM): less than 10 % of the respective control; Secretion of apoC3 (apoC3 secretion; 45 and 47.5 μM): less than 10 % of the respective control; APOB mRNA level (apolipoprotein B (APOB)): nearly abolish the mRNA abundance; APOC3 mRNA level [13]: nearly abolish the mRNA abundance; MTTP mRNA level [14]: nearly abolish the mRNA abundance; ANGPTL3 mRNA level [15]: nearly abolish the mRNA abundance; Therapeutic blood (or plasma) concentration in patients ([9]; ref Loi CM et al., J Clin Pharmacol 1999;39(9):920-6, Plosker GL and Faulds D. Drugs 1999;57(3):409-438, listed as Troglitazone (TRO)): 0.90 - 2.82 mg/L and 2.0 - 6.4 µM |
